Measured values reported in PubChem BioAssay (NCI).
Values joined by “and” are separate entries in the source; they are usually repeats but may differ in a detail not shown here. Identical values can stand only once.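 The compound was tested at five concentrations on cells cultured in 96-well plates, with a 48-hour exposure period. GI50: concentration for 50% inhibition of growth. TGI: total growth inhibition.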

How the values were obtained:
Test in all cases: NCI tumour cell line growth inhibition, 48 h
SF-268 CNS = tested on: SF-268 CNS
LOX IMVI melanoma = tested on: LOX IMVI melanoma
KM12 colon = tested on: KM12 colon
SF-295 CNS = tested on: SF-295 CNS
SNB-75 CNS = tested on: SNB-75 CNS
NCI-H226 lung = tested on: NCI-H226 lung
UO-31 renal = tested on: UO-31 renal
MALME-3M melanoma = tested on: MALME-3M melanoma
HCT-15 colon = tested on: HCT-15 colon
U251 CNS = tested on: U251 CNS

## O=NN(CCCl)C(=O)NC1CCCCC1
SF-268 CNS
  GI50: 21 µM and 33.6 µM
  TGI: 57.9 µM and 120 µM and 235 µM
LOX IMVI melanoma
  GI50: 14.2 µM and 27.9 µM
  TGI: 52 µM and 56.9 µM and 74.8 µM
KM12 colon
  GI50: 17.5 µM and 82.1 µM
  TGI: 47.4 µM and 158 µM and 200 µM
SF-295 CNS
  GI50: 91.7 µM
  TGI: 118 µM
SNB-75 CNS
  GI50: 23.3 µM and 42.1 µM
  TGI: 64.5 µM and 112 µM and 108 µM
NCI-H226 lung
  GI50: 25.2 µM
  TGI: 68.2 µM and 150 µM and 180 µM
UO-31 renal
  GI50: 22 µM and 52.9 µM
  TGI: 54.6 µM and 168 µM and 206 µM
MALME-3M melanoma
  GI50: 18 µM
  TGI: 37 µM and 150 µM and 112 µM
HCT-15 colon
  GI50: 16.8 µM and 54.7 µM
  TGI: 33.5 µM and 103 µM and 115 µM
U251 CNS
  GI50: 15.8 µM and 64.7 µM
  TGI: 51.2 µM and 103 µM and 173 µM

## [Cl-].[Gd+3].[O-]/N=C(\c1ccccc1)c1ccccn1.[O-]/N=C(\c1ccccc1)c1ccccn1.[O-]/N=C(\c1ccccc1)c1ccccn1
SF-268 CNS
  GI50: 55.6 µM
  TGI: > 100 µM
LOX IMVI melanoma
  GI50: 28.5 µM
  TGI: 76.5 µM
KM12 colon
  GI50: 37.3 µM
  TGI: > 100 µM
SF-295 CNS
  GI50: 36.6 µM
  TGI: > 100 µM
SNB-75 CNS
  GI50: 17.5 µM
  TGI: 71.9 µM
NCI-H226 lung
  GI50: 40.4 µM
  TGI: > 100 µM
UO-31 renal
  GI50: 35.3 µM
  TGI: > 100 µM
MALME-3M melanoma
  GI50: 95.8 µM
  TGI: > 100 µM
HCT-15 colon
  GI50: 48.4 µM
  TGI: > 100 µM
U251 CNS
  GI50: 68.9 µM
  TGI: > 100 µM

## O=C(c1ccccc1)C(Br)C(Br)c1ccccc1 (configuration not stated)
SF-268 CNS
  GI50: 9.37 µM
  TGI: 24.8 µM
LOX IMVI melanoma
  GI50: 1.82 µM
  TGI: 3.41 µM
KM12 colon
  GI50: 3.5 µM
  TGI: 11.3 µM
SF-295 CNS
  GI50: 11.9 µM
  TGI: 27.7 µM
SNB-75 CNS
  GI50: 12.1 µM
  TGI: 25.6 µM
NCI-H226 lung
  GI50: 2.94 µM
  TGI: 7.66 µM
UO-31 renal
  GI50: 1.85 µM
  TGI: 3.87 µM
MALME-3M melanoma
  GI50: 2.02 µM
  TGI: 4.31 µM
HCT-15 colon
  GI50: 2.96 µM
  TGI: 9.76 µM
U251 CNS
  GI50: 8.15 µM
  TGI: 20.9 µM

## COc1ccc(OCC(O)CN2CCN(c3ccc(Cl)cc3)CC2)cc1 (configuration not stated)
SF-268 CNS
  GI50: 80.6 µM
  TGI: > 100 µM
LOX IMVI melanoma
  GI50: > 100 µM
  TGI: > 100 µM
KM12 colon
  GI50: > 100 µM
  TGI: > 100 µM
SF-295 CNS
  GI50: > 100 µM
  TGI: > 100 µM
SNB-75 CNS
  GI50: 17 µM
  TGI: 83.5 µM
NCI-H226 lung
  GI50: 37.9 µM
  TGI: > 100 µM
MALME-3M melanoma
  GI50: 59.7 µM
  TGI: > 100 µM
HCT-15 colon
  GI50: > 100 µM
  TGI: > 100 µM
U251 CNS
  GI50: 79.3 µM
  TGI: > 100 µM

## c1cncc(C2ONC3=NCCN32)c1 (configuration not stated)
SF-268 CNS
  GI50: 21.7 µM
  TGI: > 100 µM
KM12 colon
  GI50: 21.2 µM
  TGI: > 100 µM
SF-295 CNS
  GI50: 33.3 µM
  TGI: > 100 µM
SNB-75 CNS
  GI50: 22.4 µM
  TGI: 98.1 µM
NCI-H226 lung
  GI50: 20 µM
  TGI: 68.7 µM
UO-31 renal
  GI50: 2.27 µM
  TGI: > 100 µM
MALME-3M melanoma
  GI50: 5.17 µM
  TGI: 91.4 µM
HCT-15 colon
  GI50: 11.5 µM
  TGI: 54.7 µM
U251 CNS
  GI50: 16.5 µM
  TGI: 64.5 µM

## O=C(OC[C@@H]1CO1)c1cccc2c(=O)c3ccccc3[nH]c12
SF-268 CNS
  GI50: 0.172 µM
  TGI: 1.01 µM
LOX IMVI melanoma
  GI50: 0.0807 µM
  TGI: 0.48 µM
KM12 colon
  GI50: 0.245 µM
  TGI: 0.771 µM
SF-295 CNS
  GI50: 0.432 µM
  TGI: 2.5 µM
SNB-75 CNS
  GI50: 0.288 µM
  TGI: 1.49 µM
NCI-H226 lung
  GI50: 0.301 µM
  TGI: 1.48 µM
MALME-3M melanoma
  GI50: 0.472 µM
  TGI: 1.76 µM
HCT-15 colon
  GI50: 0.307 µM
  TGI: 3.36 µM
U251 CNS
  GI50: 0.279 µM
  TGI: 3.69 µM

## COc1cc2cc3c(c(O)c2c(O)c1-c1c(OC)cc2cc4c(c(O)c2c1O)C(=O)O[C@H](C)C4)C(=O)O[C@H](C)C3
SF-268 CNS
  GI50: 14.1 µM
  TGI: 37.9 µM
LOX IMVI melanoma
  GI50: 18 µM
  TGI: 44.6 µM
KM12 colon
  GI50: 38.8 µM
  TGI: > 100 µM
SF-295 CNS
  GI50: 24.5 µM
  TGI: 78.1 µM
NCI-H226 lung
  GI50: 32.7 µM
  TGI: > 100 µM
UO-31 renal
  GI50: > 100 µM
  TGI: > 100 µM
HCT-15 colon
  GI50: 25.6 µM
  TGI: 82.1 µM
U251 CNS
  GI50: 19.6 µM
  TGI: 48.1 µM

## COC(=O)[C@]1(C)CCC[C@]2(C)[C@@H]1CCC13C[C@@H](C=CO1)[C@@H](C)CC32O (some centres not stated)
SF-268 CNS
  GI50: > 100 µM
  TGI: > 100 µM
LOX IMVI melanoma
  GI50: > 100 µM
  TGI: > 100 µM
SF-295 CNS
  GI50: 27.5 µM
  TGI: 88.7 µM
SNB-75 CNS
  GI50: 62.2 µM
  TGI: > 100 µM
NCI-H226 lung
  GI50: > 100 µM
  TGI: > 100 µM
UO-31 renal
  GI50: > 100 µM
  TGI: > 100 µM
HCT-15 colon
  GI50: > 100 µM
  TGI: > 100 µM
U251 CNS
  GI50: > 100 µM
  TGI: > 100 µM

## CCOc1ccc(Nc2nc(-c3c(C)nc4ncccn34)cs2)cc1
SF-268 CNS
  GI50: 1.53 µM
  TGI: 19.5 µM
LOX IMVI melanoma
  GI50: 0.0382 µM
  TGI: 17.2 µM
KM12 colon
  GI50: 0.034 µM
  TGI: 13.8 µM
SF-295 CNS
  GI50: < 0.01 µM
  TGI: 15.3 µM
NCI-H226 lung
  GI50: 2.81 µM
  TGI: 22.6 µM
UO-31 renal
  GI50: 0.0537 µM
  TGI: 18.6 µM
HCT-15 colon
  GI50: 0.0467 µM
  TGI: 15.4 µM

## O=C(Oc1ccc2c(c1)CN(Cc1ccccc1)CO2)c1ccccc1
SF-268 CNS
  TGI: 33 µM
LOX IMVI melanoma
  TGI: 37.1 µM
KM12 colon
  TGI: 44.7 µM
SF-295 CNS
  TGI: 38.4 µM
SNB-75 CNS
  TGI: 32.5 µM
UO-31 renal
  TGI: 31.8 µM
MALME-3M melanoma
  TGI: 33.9 µM
HCT-15 colon
  TGI: 36.2 µM
U251 CNS
  TGI: 31.2 µM

## C=C1CC/C=C(\C)CC[C@H](C(=C)C)[C@@H](O)/C=C(/CO)CCC1O (some centres not stated)
SF-268 CNS
  GI50: 78.4 µM
  TGI: > 100 µM
LOX IMVI melanoma
  GI50: 50.4 µM
  TGI: > 100 µM
KM12 colon
  GI50: 4.58 µM
  TGI: > 100 µM
SF-295 CNS
  GI50: 71.9 µM
  TGI: > 100 µM
SNB-75 CNS
  GI50: > 100 µM
  TGI: > 100 µM
NCI-H226 lung
  GI50: > 100 µM
  TGI: > 100 µM
UO-31 renal
  GI50: 62.2 µM
  TGI: > 100 µM
HCT-15 colon
  GI50: > 100 µM
  TGI: > 100 µM
U251 CNS
  GI50: 85.2 µM
  TGI: > 100 µM

## O=C1CNN=C(Cn2nc(-c3ccccc3)c3ccccc3c2=O)N1
SF-268 CNS
  TGI: > 100 µM
KM12 colon
  TGI: > 100 µM
SF-295 CNS
  TGI: > 100 µM
SNB-75 CNS
  TGI: > 100 µM
NCI-H226 lung
  TGI: > 100 µM
UO-31 renal
  TGI: > 100 µM
MALME-3M melanoma
  TGI: > 100 µM
HCT-15 colon
  TGI: > 100 µM
U251 CNS
  TGI: > 100 µM

## COCC1N=C(c2cc(OC)c(OC)c(OC)c2-c2cc3c(cc2[C@H](C)O)OCO3)O[C@H]1c1ccccc1 (some centres not stated)
LOX IMVI melanoma
  TGI: > 100 µM
KM12 colon
  TGI: > 100 µM
SF-295 CNS
  TGI: > 100 µM
SNB-75 CNS
  TGI: > 100 µM
NCI-H226 lung
  TGI: > 100 µM
UO-31 renal
  TGI: > 100 µM
HCT-15 colon
  TGI: > 100 µM
U251 CNS
  TGI: > 100 µM

## OCC#Cc1ccccc1C#Cc1ccc(C#Cc2ccccc2)cc1
SF-268 CNS
  GI50: 23.7 µM
  TGI: > 100 µM
LOX IMVI melanoma
  GI50: 24.6 µM
  TGI: > 100 µM
KM12 colon
  GI50: 17.3 µM
  TGI: 34.3 µM
SF-295 CNS
  GI50: 37.7 µM
  TGI: > 100 µM
SNB-75 CNS
  GI50: 32.4 µM
  TGI: > 100 µM
NCI-H226 lung
  GI50: 18.4 µM
  TGI: 43 µM
UO-31 renal
  GI50: 28.6 µM
  TGI: > 100 µM
HCT-15 colon
  GI50: 18.1 µM
  TGI: 38.5 µM
U251 CNS
  GI50: 19.9 µM
  TGI: 38.6 µM
